Reference: the NIST ThermoML archive (doi:10.1016/j.jct.2011.02.008)
Numbers after ± are expanded uncertainties.

Settings: Liquid, Vibrating tube method

C1CCCCC1 [cyclohexane]
mass density [kg/m3]
Settings	288.15 K	298.15 K	308.15 K	318.15 K	328.15 K	338.15 K	348.15 K	358.15 K
100 kPa	782.7 ± 2.4	773.2 ± 2.4	763.6 ± 2.4	754 ± 2.4	744.4 ± 2.4	734.5 ± 2.4	724.6 ± 2.4	714.3 ± 2.4
1000 kPa	783.7 ± 2.4	774 ± 2.4	764.5 ± 2.4	755 ± 2.4	745.4 ± 2.4	735.6 ± 2.4	725.7 ± 2.4	715.6 ± 2.4
5000 kPa	787 ± 2.4	777.6 ± 2.4	768.2 ± 2.4	759 ± 2.4	749.7 ± 2.4	740.2 ± 2.4	730.8 ± 2.4	720.9 ± 2.4
10000 kPa	790.7 ± 2.4	781.8 ± 2.4	772.6 ± 2.4	763.7 ± 2.4	754.7 ± 2.4	745.7 ± 2.4	736.5 ± 2.4	727.2 ± 2.4
15000 kPa	794.1 ± 2.4	785.6 ± 2.4	776.8 ± 2.4	767.9 ± 2.4	759.5 ± 2.4	750.7 ± 2.4	741.9 ± 2.4	732.9 ± 2.4
20000 kPa	–	789.3 ± 2.4	780.8 ± 2.4	772.4 ± 2.4	764 ± 2.4	755.5 ± 2.4	747 ± 2.4	738.3 ± 2.4
25000 kPa	–	792.9 ± 2.4	784.6 ± 2.4	776.4 ± 2.4	768.2 ± 2.4	760 ± 2.4	751.7 ± 2.4	743.3 ± 2.4
30000 kPa	–	796.8 ± 2.4	788.3 ± 2.4	780.3 ± 2.4	772.3 ± 2.4	764.3 ± 2.4	756.2 ± 2.4	748.1 ± 2.4
35000 kPa	–	799.7 ± 2.4	791.8 ± 2.4	784.1 ± 2.4	776.1 ± 2.4	768.4 ± 2.4	760.5 ± 2.4	752.6 ± 2.4
40000 kPa	–	–	795.2 ± 2.4	787.7 ± 2.4	779.9 ± 2.4	772.3 ± 2.4	764.6 ± 2.4	757 ± 2.4
45000 kPa	–	–	–	791.1 ± 2.4	783.5 ± 2.4	776 ± 2.4	768.6 ± 2.4	761.1 ± 2.5
50000 kPa	–	–	–	794.4 ± 2.4	787 ± 2.4	779.7 ± 2.5	772.3 ± 2.5	765 ± 2.5
55000 kPa	–	–	–	–	–	783.2 ± 2.5	776 ± 2.5	768.9 ± 2.5
